Assay results as given in patent US8846710B2, “Method of preferentially inducing the biosynthesis of interferon” (3M Innovative Properties Company, priority 2005, dated 2014).

Assays:
interferon (α) (IFN-α) = assay: Cytokine induction in human cells: IFN-α secreted by PBMC into culture media (ELISA); type: cell-based; conditions: for minimal effective concentration / Maximal Response (pg/mL) IFN: Table 10; for minimal effective concentration / Maximal Response IFN / Minimum Effective Concentration IFN: human PBMC; for minimal effective concentration: lowest tested concentration inducing IFN-α over usually 20 pg/mL, median where more than one experiment, read-out: Minimum Effective Concentration (μM) IFN; for Maximal Response (pg/mL) IFN: maximal response in dose response curve, * = below experimental background level, median; for Maximal Response IFN / Minimum Effective Concentration IFN: Table 11, median where tested in more than one experiment
In short: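 IFN-α secreted by density-gradient-isolated PBMC (final 2×10^6 cells/mL) was quantified by ELISA after 18–24 h compound exposure at 37 °C, typically 30-0.014 μM in 3-fold steps with ≤1% DMSO. Readings corrected for background and reference-compound variability; lowest concentration above usually 20 pg/mL reported, plus maximal response (pg/mL).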

[1] = test system: tumor necrosis factor (α) (TNF-α); assay: Cytokine induction in human cells: TNF-α secreted by PBMC into culture media (ORIGEN M-Series immunoassay); type: cell-based; conditions: for minimal effective concentration / Maximal Response (pg/mL) TNF: Table 10; for minimal effective concentration / Minimum Effective Concentration TNF / Maximal Response TNF: human PBMC; for minimal effective concentration: lowest tested concentration inducing TNF-α over usually 40 pg/mL, median where more than one experiment, read-out: Minimum Effective Concentration (μM) TNF; for Maximal Response (pg/mL) TNF: maximal response in dose response curve, * = below experimental background level; for Maximal Response (pg/mL) TNF / Maximal Response TNF: median; for Minimum Effective Concentration TNF / Maximal Response TNF: Table 11; for Minimum Effective Concentration TNF: median where tested in more than one experiment; for Maximal Response TNF: * = TNF below experimental background of 40 pg/mL
In short: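 Secreted TNF-α (pg/mL) was quantified by ORIGEN M-Series immunoassay after 18 to 24 hours culture at 37° C of human PBMC (2×10^6 cells/mL final) with test compound (usually 30-0.014 μM, 3-fold series, DMSO ≤1%). Values were corrected for DMSO or experimental background and a reference-compound ratio, giving a minimum effective concentration.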

Structure (SMILES)	minimal effective concentration (interferon (α) (IFN-α)) [µM]	Maximal Response (pg/mL) IFN (interferon (α) (IFN-α)) [pg/mL]	minimal effective concentration [1] [µM]	Maximal Response (pg/mL) TNF [1] [pg/mL]	Maximal Response IFN (interferon (α) (IFN-α)) [pg/mL]	Minimum Effective Concentration IFN (interferon (α) (IFN-α)) [µM]	Minimum Effective Concentration TNF [1] [µM]	Maximal Response TNF [1] [pg/mL]
CCOCc1nc2c(N)nc3cc(-c4cncc(CO)c4)ccc3c2n1CC1CCN(C(=O)C(C)C)CC1 [Analog 44]	0.04	1382	1.11	3128				
CCOCc1nc2c(N)nc3cc(-c4cncc(CO)c4)ccc3c2n1CC1CCCCC1 [Analog 45]	0.014	1062	1.11	2865				
CCOCc1nc2c(N)nc3cc(-c4cccc(C(=O)N5CCOCC5)c4)ccc3c2n1CC1CCCCC1 [Analog 46]	0.014	815	0.37	1054				
COCc1nc2c(N)nc3ccccc3c2n1CC(C)(C)NS(C)(=O)=O [Analog 47]					1638	0.37	3.33	7151
Cc1nc2c(N)nc3ccccc3c2n1CCCCNS(C)(=O)=O [Analog 48]					7293	0.12	10	526
CCc1nc2c(N)nc3ccccc3c2n1CCCCNS(C)(=O)=O [Analog 49]					2712	0.04	3.33	679
CCCc1nc2c(N)nc3ccccc3c2n1CCCCNS(C)(=O)=O [Analog 50]					2184	0.12	1.11	850
CCOCc1nc2c(N)nc3ccccc3c2n1CCCCNS(C)(=O)=O [Analog 51]					2581	0.04	1.11	1439
COCCc1nc2c(N)nc3ccccc3c2n1CCCCNS(C)(=O)=O [Analog 52]					7594	0.014	0.37	1931
Cc1nc2c(N)nc3ccccc3c2n1CCCCNC(=O)N1CCOCC1 [Analog 53]					1538	0.12	10	1400
CCc1nc2c(N)nc3ccccc3c2n1CCCCNC(=O)N1CCOCC1 [Analog 54]					4975	0.37	3.33	2570
CCCc1nc2c(N)nc3ccccc3c2n1CCCCNC(=O)N1CCOCC1 [Analog 55]					11255	0.12	1.11	1298
CCOCc1nc2c(N)nc3ccccc3c2n1CCCCNC(=O)N1CCOCC1 [Analog 56]					3433	0.12	1.11	1580
COCCc1nc2c(N)nc3ccccc3c2n1CCCCNC(=O)N1CCOCC1 [Analog 57]					8889	0.014	0.04	3494
CCc1nc2c(N)nc3ccccc3c2n1CCCNS(C)(=O)=O [Analog 59]					1912	1.11	30	238
CCCc1nc2c(N)nc3ccccc3c2n1CCCNS(C)(=O)=O [Analog 60]					2148	1.11	10	109
CCOCc1nc2c(N)nc3ccccc3c2n1CCCNS(C)(=O)=O [Analog 61]					1338	0.37	10	463
COCCc1nc2c(N)nc3ccccc3c2n1CCCNS(C)(=O)=O [Analog 62]					3995	0.014	1.11	954
Cc1nc2c(N)nc3ccccc3c2n1CC(C)(C)CNS(C)(=O)=O [Analog 63]					1019	0.37	10	805
CCc1nc2c(N)nc3ccccc3c2n1CC(C)(C)CNS(C)(=O)=O [Analog 64]					1431	0.12	3.33	1453
CCCc1nc2c(N)nc3ccccc3c2n1CC(C)(C)CNS(C)(=O)=O [Analog 65]					1711	0.12	10	1929
CCOCc1nc2c(N)nc3ccccc3c2n1CC(C)(C)CNS(C)(=O)=O [Analog 66]					561	0.12	0.37	3768
COCCc1nc2c(N)nc3ccccc3c2n1CC(C)(C)CNS(C)(=O)=O [Analog 67]					1805	0.014	0.04	5467
Cc1nc2c(N)nc3ccccc3c2n1CCNS(C)(=O)=O [Analog 68]					1610	0.12	10	820
CCc1nc2c(N)nc3ccccc3c2n1CCNS(C)(=O)=O [Analog 69]					1610	0.12	10	820
CCCc1nc2c(N)nc3ccccc3c2n1CCNS(C)(=O)=O [Analog 70]					2003	30	10	11432
CCOCc1nc2c(N)nc3ccccc3c2n1CCNS(C)(=O)=O [Analog 71]					1465	0.12	3.33	4918
COCCc1nc2c(N)nc3ccccc3c2n1CCNS(C)(=O)=O [Analog 72]					5858	0.014	0.04	8547
Cc1nc2c(N)nc3ccccc3c2n1CCCCCS(C)(=O)=O [Analog 73]					1294	0.37	3.33	771
CCc1nc2c(N)nc3ccccc3c2n1CCCCCS(C)(=O)=O [Analog 74]					1062	0.12	1.11	1545
